# From PubChem BioAssay AID1996
# Conditions: buffer; pH 7.4; 200.0 µM
row,Compound,solubility kinetic [µg/mL]
1,O=C(Nc1ccc2c(c1)C(=O)OC2)c1ccc(Cl)cc1Cl,3
2,O=[N+]([O-])c1ncccc1OCc1ccc(Cl)c(Cl)c1,0.4
3,C[N+]1(C)C2CCC1CC(OC(=O)c1ccccc1)C2.[Br-] (configuration not stated),> 51
4,N#CCSc1nc2sccc2c(=O)n1-c1ccccc1,37
5,COc1cnc(NS(=O)(=O)c2ccc(N)cc2)nc1,> 42
6,CC#CC[N+](C)(C)CCCCCCCCCC.[Br-],> 47.8
7,CS(=O)(=O)N1CCCC(C(=O)Nc2cccc(F)c2)C1 (configuration not stated),> 45.1
8,CCN1CCN(C(=O)c2cc3ccc(OC)cc3[nH]2)CC1,> 43.1
9,Nc1cccc(CP(=O)(c2ccccc2)c2ccccc2)c1,> 46.1
10,COc1ccc(/C=C/C(=O)OCC(=O)NC(=O)NC(C)(C)C)cc1,< 0.4
11,O=C(NCC(=O)N1CCCC(C(F)(F)F)C1)c1ccco1 (configuration not stated),> 45.6
12,CC(C)(C)C(=O)N1CCN(c2nc3ccccc3o2)CC1,> 43.1
13,O=[N+]([O-])c1ccccc1Nc1c2ccccc2nc2ccccc12,< 0.2
14,CC(=O)Nc1cccc(NC(=O)/C=C/c2ccc(S(=O)(=O)N3CCOCC3)cc2)c1,18.8
15,Nc1ncnc(Nc2ccccc2)n1,> 28.1
16,COc1ccc(C(=O)Nc2cccc(S(=O)(=O)N3CCCC3)c2)cc1S(=O)(=O)N1CCOCC1,5.3
17,O=C(CN1CCN(S(=O)(=O)c2ccc(Cl)cc2)CC1)N1CCCC1,48.7
18,O=C1CSC(c2ccccn2)N1c1ccc(C(F)(F)F)cc1 (configuration not stated),> 48.6
19,Cc1ccc2nc(SC(C)C(=O)NC3CCCC3)[nH]c2c1 (configuration not stated),> 45.5
20,O=C(NCCN1CCOCC1)c1cc2ccccc2oc1=O,> 45.3
21,COc1ccc2nc(C)cc(Nc3ccc(C)cc3)c2c1.Cl,30.5

row,Compound,solubility kinetic [µg/mL]
1,CC(C)C[C@H](NC(=O)N1CCCCCC1)C(=O)O,> 38.5
2,Cc1ccsc1C(=O)OCC(=O)NC1CCS(=O)(=O)C1 (configuration not stated),> 47.6
3,O=C(Nc1cc([N+](=O)[O-])ccc1N1CCCC1)c1cccs1,4.1
4,CCCn1c(SCC(=O)NC2CCC(C)CC2)n[nH]c1=O (configuration not stated),> 46.9
5,CNC(=O)NC(O)C(Cl)(Cl)Cl (configuration not stated),33.1
6,CC1=Nc2cc(C(=O)O)ccc2Sc2c(C)ccc(C)c21,42.1
7,COC(=O)Cn1cnc2scc(-c3ccc(C)c(C)c3)c2c1=O,33.7
8,Cc1cc(C)n2ncc(C(=O)O)c2n1,> 28.7
9,Cc1cnc(C(=O)OCc2nc3ccsc3c(=O)[nH]2)cn1,45.3
10,CC(=O)c1ccc(S(=O)(=O)N2CCNCC2)cc1.Cl,45.5
11,O=C(c1cc2ccccc2oc1=O)N1CCCCCCC1,42.5
12,CCN(C(=O)COC(=O)/C(C#N)=C/c1ccc(N(C)C)cc1)C1CCS(=O)(=O)C1 (configuration not stated),4.8
13,Cc1nc(N2CCOCC2)[nH]c(=O)c1[N+](=O)[O-],33.1
14,CC(C)(C)CC(=O)NCc1cccs1,> 31.7
15,O=c1[nH]c(CSc2ccccc2)nc2c1oc1ccccc12,2.2
16,O=S(=O)(c1ccc2oc(=S)[nH]c2c1)N1CCCCC1,> 44.8
17,CCCCCCCCCCCCCCCC(=O)OC(CC(=O)O)C[N+](C)(C)C.[Cl-] (configuration not stated),4.5
18,C=CCN1C(=O)N(CC=C)c2cccc3cccc1c23,0.4
19,Clc1ccc2nc(-c3ccccc3)nc(C(Cl)Cl)c2c1,< 0.3
20,O=C(Nc1cccc(S(=O)(=O)N2CCCCC2)c1)c1ccc(Cl)nc1,4.4
21,O=C(CSc1cc(Cl)ccc1Cl)NC1CC1,37.7

row,Compound,solubility kinetic [µg/mL]
1,CC(C)C(NS(=O)(=O)c1ccccc1)C(=O)NC1CCCC1 (configuration not stated),> 48.7
2,COCc1c(C(=O)OCc2c(C)noc2C)oc2ccccc12,33.2
3,Nc1cc(=O)[nH]c(=O)n1CCc1ccccc1,> 34.7
4,N#Cc1cccc(NC(=O)CCc2ccc(S(=O)(=O)N3CCOCC3)cc2)c1,48
5,Cc1ccc(Nc2nc(Cl)nc(NC3CCCCC3)n2)cc1,< 0.1
6,Cc1ncc([N+](=O)[O-])n1CC(=O)Nc1cc(Cl)ccc1Cl,0.9
7,Cc1ccc2oc(C(=O)NCc3ncc(C)[nH]3)c(C)c2c1,38.7
8,O=C(/C=C/c1ccc(F)cc1)N1CCCc2ccccc21,18.5
9,O=C(COc1ncnc2ccccc12)N1CCN(c2ccccc2)CC1,> 52.3
10,COc1cc(OC)c(C(=O)NCc2ccco2)cc1OC,> 43.7
11,O=C(COC(=O)c1nc(Cl)ccc1Cl)c1ccc[nH]1,31.3
12,Cc1nn(C)c(C)c1NC(=O)/C(C#N)=C\N(C)C,> 37.1
13,CN(C(=O)c1c[nH]c(=O)cc1C(F)(F)F)c1ccc(Cl)cc1,45.9
14,CCS(=O)(=O)N1CCC(C(=O)Nc2cccc(F)c2)CC1,> 47.2
15,CCN(c1ccccc1)c1nc2nonc2nc1NCCO,> 45
16,COC(=O)C1CCN(C(=O)c2cc(=O)[nH]c3ccccc23)CC1,> 47.2
17,CC(=O)c1sc2c(c1N)c(=O)[nH]c(=O)n2-c1ccccc1,8.5
18,O=C(COC(=O)/C=C/c1ccc(OC(F)F)cc1)Nc1cccc(S(=O)(=O)N2CCOCC2)c1,7.3
19,CCCCCCNc1c([N+](=O)[O-])c(=O)sc2ccccc12,4.4
20,CCc1ccccc1NC(=O)N1C[C@H]2C[C@@H](C1)c1cccc(=O)n1C2,> 50.6
21,CN(C(=O)/C=C/c1cnc2ccccc2c1)C1CCCCC1,> 44.2

# Second part, the molecule after the results:
row,solubility kinetic [µg/mL],Compound
1,25.6,COC(=O)c1cc(Cl)c(NC(=O)Cc2ccccc2)cc1OC
2,0.5,CC(C)(C)c1ccccc1NC(=O)NC1CCN(Cc2c(F)cccc2Cl)CC1
3,0.8,O=C(Nc1ccccc1)C(=O)c1c[nH]c2ccccc12
4,8.8,O=C(COC(=O)c1cc(=O)[nH]c2ccccc12)c1ccccc1
5,1.2,NC(=O)CC[C@H](NC(=O)c1ccc(F)cc1)C(=O)OCC(=O)NCc1ccc2c(c1)OCO2
6,< 0.6,Cc1ccc(C(=O)Nc2ccc3ccccc3c2)cc1
7,> 40.1,CCOC(=O)NC(=O)CSc1ccc(C)cc1C
8,> 49.2,CN(C(=O)C(Cl)Cl)c1ccc(OC(=O)c2ccco2)cc1
9,49.1,CC(C)c1ccc(CNCCCSc2ncccn2)cc1.Cl
10,35.9,COc1ccccc1C(=O)CSc1nccn1C
11,12.7,CC(OC(=O)CCc1c[nH]c2ccccc12)C(=O)c1ccccc1 (configuration not stated)
12,7.9,COc1ccc(C(=O)/C=C/Nc2ccc(S(N)(=O)=O)cc2)cc1OC
13,< 0.6,CC1(C)Cc2ccccc2/C(=C/C(=O)c2ccccc2)N1
14,< 0.4,COc1ccc(C(=O)Nc2ccc(N3CCCC3)cc2)cc1Br
15,34.7,Cc1cc(C(=O)N2CCCc3ccccc32)ccc1[N+](=O)[O-]
16,> 51.5,CCCCOc1cc(C(=O)NCCN(CC)CC)c2ccccc2n1
17,1.5,Cc1ccc(NC(=O)c2cccc(N3C(=O)C4C5C=CC(C5)C4C3=O)c2)cc1C (configuration not stated)
18,> 52.7,CCOC(=O)N1CCN(C(=S)NC(=O)c2cccc(OC)c2)CC1
19,< 0.7,CC(=O)NC(c1ccc(C(C)C)cc1)c1c(O)ccc2ccccc12 (configuration not stated)
20,42.6,O=C(/C=C\c1ccco1)NC(=S)Nc1ccccc1O
21,48.7,COC(=O)C1CN(C(=O)COc2ccccc2)c2ccccc2O1 (configuration not stated)
22,> 54.2,O=C(O)COc1ccc(NC(=O)C(c2ccccc2)c2ccccc2)cc1
23,> 33.5,c1coc(-c2ccnc(-c3ccncc3)n2)c1
24,> 46,COC(=O)c1ccccc1NC(=O)CSc1nncn1C
25,7.9,Cc1ccc(CNC(=O)CCCC(=O)c2ccccc2)cc1
26,42.8,Cc1ccc(S(=O)(=O)CC(=O)c2ccccc2[N+](=O)[O-])cc1
27,> 44.3,O=C(NCc1ccccn1)Nc1ccccc1C(F)(F)F

row,solubility kinetic [µg/mL],Compound
1,6.8,CCN(CC)c1cccc(OC(=O)c2cccnc2Cl)c1
2,1.3,COc1cccc(CNc2ccc([N+](=O)[O-])cc2C)c1
3,7.4,Cc1ccccc1Sc1ccc([N+](=O)[O-])cn1
4,37.7,O=S(=O)(Nc1ccccc1)c1ccc2c(c1)CCO2
5,1.7,Cc1cc2cc(CCNC(=O)CCCc3ccccc3)c(=O)[nH]c2cc1C
6,49.2,COc1ccc(CCNC(=O)C2CCN(C(=O)c3ccccc3)CC2)cc1
7,5.1,COc1ccccc1C(=O)OCC(=O)Nc1ccc(Cl)cn1
8,> 54.8,COc1ccc(-c2c(C(F)(F)F)nn(C)c2NC(=O)c2ccco2)cc1
9,39.3,CCC(C(=O)Nc1ccc([N+](=O)[O-])cn1)c1ccccc1 (configuration not stated)
10,10.7,CCN(CC)C(=O)c1ccc(COc2ccc(Cl)c(C)c2)o1
11,> 41.6,COC(C(=O)Nc1c(F)cccc1F)c1ccccc1 (configuration not stated)
12,> 42.5,N#C/C(=C\c1cccnc1)C(=O)Nc1ccc(O)cc1F
13,1.6,Cc1ccc(NC(=O)N2CCCC(c3ccccc3)C2)cc1 (configuration not stated)
14,3,CC(C)(C)N(Cc1ccccc1)C(=O)COC(=O)c1ccc2ccccc2n1
15,> 48.2,COc1ccccc1N(C)S(=O)(=O)c1ccc(C(=O)O)cc1
16,42.2,Cc1noc(C)c1C(=O)OCC(=O)Nc1ccc(C(N)=O)cc1
17,34.6,CN(CCO)CCOCCOc1cccc2ccccc12
18,23.7,CCC(Cc1ccccc1)NC(=O)/C=C/c1ccco1 (configuration not stated)
19,> 49.1,CCCN(CC(=O)Nc1ccccc1OC)C(=O)c1ccncc1
20,> 37.7,CCCNC(=O)COC(=O)/C=C/c1ccc(C)o1
21,> 45.5,CCCOc1ccc(/C=N/NC(=O)CN2CCCCC2)cc1
22,0.8,COc1ccc2oc(=N)c(C(=O)Nc3ccccc3Cl)cc2c1
23,7.5,CN(Cc1ccccc1)C(=S)NC(=O)c1ccccc1
24,55.5,O=C(NCCOc1ccccc1F)c1cc([N+](=O)[O-])ccc1N1CCOCC1
25,48.1,COc1ccc(NC(=O)CN(c2c(C)cccc2C)S(C)(=O)=O)cc1
26,> 52.6,COc1ccc(/C=C(/NC(=O)c2ccccc2)C(=O)N2CCCC2)cc1
27,41.2,Cc1c(C)n(Cc2ccccc2)c2ncnc(NCCO)c12
